Measured values as given in patent US11241422B2, “Methods for treatment of Fabry disease” (Amicus Therapeutics, Inc., priority 2006, dated 2022).
Where “and” joins values, the source holds several entries; their conditions need not be identical. Identical values can stand only once.

Target: T1, α-GAL (Homo sapiens, UniProt P06280)
T1 sequence (P06280 32-429): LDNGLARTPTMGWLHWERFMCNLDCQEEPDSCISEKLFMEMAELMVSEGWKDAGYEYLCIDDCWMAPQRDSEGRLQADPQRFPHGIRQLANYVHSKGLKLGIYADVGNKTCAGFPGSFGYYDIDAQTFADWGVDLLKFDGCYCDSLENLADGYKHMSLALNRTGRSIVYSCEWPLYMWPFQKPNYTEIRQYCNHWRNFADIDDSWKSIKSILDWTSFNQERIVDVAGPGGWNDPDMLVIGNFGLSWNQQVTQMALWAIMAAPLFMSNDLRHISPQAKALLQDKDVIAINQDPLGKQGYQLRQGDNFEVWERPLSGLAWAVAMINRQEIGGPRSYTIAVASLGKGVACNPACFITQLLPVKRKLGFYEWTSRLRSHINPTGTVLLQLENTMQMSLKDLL
Assay: T cell-based α-GAL enhancement assay, T cells from normal individuals cultured with DGJ
Parameters: endogenous in cells; host or cells: T cell cultures from blood of normal control individuals
Conditions: for Activity (% Normal) (+DGJ): 20 μM DGJ; for Enhancement ratio: +DGJ vs −DGJ
Experimental: 2. WBC Separation: • Patient blood was drawn into an 8 mL CPT tube, which has been stored at 18-25° C. • immediately after collecting blood, it was mixed by inverting the tube 8-10 times. • The tube was centrifuged at room temperature (18-25° C.) for 30 minutes at 1800× g using a tabletop centrifuge equipped with swinging buckets. Universal precautions for handling blood specimens were taken, including the use of a closed canister type bucket for centrifugation. • Following centrifugation, several layers of the blood composition become distinguishable which represented separation of the red blood cells from the plasma and white cells.
3. Washing of WBC's • Half of the plasma layer was aspirated by vacuum and discarded without disturbing the white cell layer. All of the remaining fluid, including the cell layer, was transferred with a Pasteur pipette to a 15 mL conical screw-cap Falcon centrifuge tube. • PBS was added to bring the volume up to 14 mL and the tube was mixed by inversion. • The tube was centrifuged at room temperature for 20-30 minutes at 1300 rpm (approximately 320× g). • Immediately after centrifugation, as much supernatant as possible was aspirated by vacuum and discarded without disturbing the cell pellet.
5. Optional: Freezing WBC Pellet • The cell pellet was mixed in the remaining liquid by tapping a finger against the bottom of the tube. • 0.5 to 1 mL of PBS was added to the re-suspended cells and one half of the pellet was transferred (using a sterile tip on a micropipette) to a labeled 1.8 mL cryovial. • The cryovial was centrifuged at room temperature for 5 minutes at 5000 rpm (approximately 2250 g) in a microcentrifuge. • All of the supernatant liquid was discarded using a Pasteur pipette without disturbing the cell pellet. • 0.5 to 1 ml of RPMI 1640 containing 10% FBS and 5% DMSO was then added to the tube and mixed a pipette and frozen overnight at −80 C prior to transferring to a liquid nitrogen cell storage freezer. B. Establishment of T-Cell Cultures from Blood Specimens • 1. The washed cells were re-suspended in 3.0 ml of RPMI 1640 medium with 10% Cosmic Calf Serum (CCS, Hyclone Laboratories, Logan, Utah), about 25 ng/ml IL-2 (PreProTECH, Rocky Hill, N.J.) and the manufacturer's recommended concentration of PHA (Life Technology, Gaithersburg, Md.). The cells were then transferred to an upright an upright […] culture flask and incubated for 3-4 days at 37° C., 5% CO2. • 2. The cell culture was diluted to 5 ml with growth medium (RPMI-1640, 10% FBS, 25 ng/ml IL-2). The cell concentration was then adjusted to about 5×10^5 cells/ml in the flask. • 3. The growth of the cells was monitored daily. Cells were maintained between 5×10^5 and 1.5×10^6 cells in an upright flask. […] Senescence of the culture will be apparent by a dramatic reduction in growth rate. Culture time may possibly be extended by re-stimulation with PHA. • 4. Optional-Freezing T-lymphocytes: T-lymphocytes may be frozen at 3×10^6 cells/vial using RPMI1640 medium containing 20% FCS and 7.5% DMSO. On day 5, 6, or 7 cryopreserve as many vials as possible at 3×10^6 cells/vial. This is sufficient to thaw 5 mLs of culture at 5×10^5 viable cells/ml. When establishing T-cell cultures, the following should be noted. • Fresh blood specimens should be collected in heparinized tubes (or tubes containing an appropriate anti-coagulant) and used the same day. ACD tubes should be used if specimens cannot be processed within 24 hours. (Clin Chem 1988 January; 34(1):110-3; Clin Diagn Lab Immunol. 1998 November; 5(6):804-7.). • Eight-10 mLs of blood is usually sufficient to establish 20 million cells by day 5. • T lymphocytes are the specific targets of the HIV virus. Use extreme care if the HIV status of the patient is unknown. • Each new lot of IL-2 should be tested to determine the optimal concentration.

[1] = T cells of single normal individuals (specimens 58-81)

OC[C@H]1NC[C@H](O)[C@@H](O)[C@H]1O [DGJ, 1-deoxygalactonojirimycin]
normal α-GAL activity (T cells from normal controls, 200 μM DGJ (inhibition)): approximately 40 % of the average of untreated normal controls | dosage effect on α-GAL activity (T cells from normal controls, DGJ between 2 nM and 20 μM): α-GAL activity increased | Activity (% Normal) (+DGJ) [1]: 161 % Normal and 100 % Normal and 120 % Normal and 104 % Normal and 150 % Normal and 165 % Normal and 145 % Normal and 97 % Normal and 141 % Normal and 198 % Normal and 315 % Normal and 140 % Normal and 138 % Normal and 131 % Normal and 99 % Normal and 126 % Normal and 108 % Normal and 116 % Normal and 118 % Normal and 107 % Normal and 117 % Normal and 111 % Normal | Enhancement ratio [1]: 1.3 (6×) and 1.1 (3×) and 1.2 (5×) and 1.5 (2×) and 1.4 (4×) and 1.0 (2×) and 1.8 and 0.8 | Enhancement ratio (T cells, All NL (M or F)): 1.3 | Activity (% Normal) (+DGJ) (T cells, All NL (normal individuals, M or F)): 128 % Normal | Activity (% Normal) (+DGJ) (T cells, All NL Female): 117 % Normal | Enhancement ratio (T cells, All NL Female): 1.4 | Activity (% Normal) (+DGJ) (T cells, All NL Male): 124 % Normal | Enhancement ratio (T cells, All NL Male): 1.2
